Test results as given in paper PMC7436049, “Combining In Silico and In Vitro Studies to Evaluate the Acetylcholinesterase Inhibitory Profile of Different Accessions and the Biomarker Triterpenes of Centella asiatica” (Molecules, 2020).
Read-outs that look alike come from different tables or passages of the source.

Target: T1, acetylcholinesterase from electrophorus electricus (Electrophorus electricus, UniProt O42275)
T1 construct: purchased Sigma–Aldrich (St. Louis, MO, USA)
Assay: biochemical
Details: read-out: AChE inhibitory activity, IC50 Values (converted)
Description: All solvents were HPLC grade, purchased from Merck (Darmstadt, Germany). […] Sodium monobasic […] were purchased from Merck (Darmstadt, Germany), and acetylcholinesterase from electrophorus electricus, 5,5′-Dithiobis (2-nitrobenzoic acid), and […] were obtained from Sigma–Aldrich (St. Louis, MO, USA).
The AChE inhibitory activity was evaluated using Ellman’s method, as reported previously. Each sample (20 µL of 5 mg/mL in DMSO) was dispensed in triplicate into a 96-well microplate and mixed with 190 µL of DTNB, 20 µL of substrate (ATCI). The control wells contained 2% of DMSO instead of the extract. The enzymatic activity was measured at 412 nm every 30 s intervals for 3 min. The buffer solution was used as negative control.
The percentage inhibition (%I) of each sample and the positive control (physostigmine) was calculated using the formula:%I: [(Ac − As)/(Ac)] × 100(1) where (%I): Percentage inhibition • Ac: Absorbance of negative control • As: Absorbance of sample
The experiments were expressed as the mean ± standard error of the mean (SEM) in triplicates.

[1] = Ellman's method, 412 nm, mean ± SEM, triplicates

T1 sequence (O42275 24-633): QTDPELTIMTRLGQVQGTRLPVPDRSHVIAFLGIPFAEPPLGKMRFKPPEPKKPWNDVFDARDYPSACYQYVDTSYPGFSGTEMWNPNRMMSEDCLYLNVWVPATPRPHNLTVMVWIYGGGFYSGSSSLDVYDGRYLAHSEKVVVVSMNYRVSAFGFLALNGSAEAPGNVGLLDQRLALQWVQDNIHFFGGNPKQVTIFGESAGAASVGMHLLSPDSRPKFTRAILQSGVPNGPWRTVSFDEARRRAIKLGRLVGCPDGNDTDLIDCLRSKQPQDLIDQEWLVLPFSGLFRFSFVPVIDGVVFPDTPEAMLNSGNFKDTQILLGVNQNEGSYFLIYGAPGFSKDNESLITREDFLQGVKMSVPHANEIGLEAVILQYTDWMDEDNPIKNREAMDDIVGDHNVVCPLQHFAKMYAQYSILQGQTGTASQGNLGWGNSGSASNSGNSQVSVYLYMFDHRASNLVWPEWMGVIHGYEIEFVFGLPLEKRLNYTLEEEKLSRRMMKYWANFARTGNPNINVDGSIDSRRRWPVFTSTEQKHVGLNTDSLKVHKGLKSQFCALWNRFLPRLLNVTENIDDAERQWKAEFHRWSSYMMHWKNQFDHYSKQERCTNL

Compound	IC50 [1] [µM]	IC50 [µM]
C[C@H]1[C@H](C)CC[C@]2(C(=O)O)CC[C@]3(C)C(=CC[C@@H]4[C@@]5(C)C[C@@H](O)[C@H](O)[C@@](C)(CO)[C@@H]5CC[C@]43C)[C@H]12 [Asiatic acid, asiatic acid]	30.8	
C[C@H]1[C@H](C)CC[C@]2(C(=O)O)CC[C@]3(C)C(=CC[C@@H]4[C@@]5(C)C[C@@H](O)[C@H](O)[C@@](C)(CO)[C@@H]5[C@H](O)C[C@]43C)[C@H]12 [Madecassic acid, madecassic acid]	35.3	
C[C@H]1[C@H](C)CC[C@]2(C(=O)O[C@@H]3O[C@H](CO[C@@H]4O[C@H](CO)[C@@H](O[C@@H]5O[C@@H](C)[C@H](O)[C@@H](O)[C@H]5O)[C@H](O)[C@H]4O)[C@@H](O)[C@H](O)[C@H]3O)CC[C@]3(C)C(=CC[C@@H]4[C@@]5(C)C[C@@H](O)[C@H](O)[C@@](C)(CO)[C@@H]5[C@H](O)C[C@]43C)[C@H]12 [Madecassoside, madecassoside]		38.1
